# In patent publication US11427567B2, “Imidazolyl pyrimidinylamine compounds as CDK2 inhibitors” (Incyte Corporation, priority 2019, dated 2022):
# Molecular target: CDK2/Cyclin E1 (Homo sapiens (Human), UniProt P24941)
# Assay: CDK2/Cyclin E1 HTRF enzyme activity assay (Example A)
# Type: biochemical
# Details: 1 mM ATP
# Description: Assays were conducted in white 384-well polystyrene plates in a final reaction volume of 8 μL. […] HTRF signals were read after 1 hour at room temperature on a PHERAstar FS plate reader (BMG Labtech). Data was analyzed with IDBS XLFit and GraphPad Prism 5.0 software using a three or four parameter dose response curve to determine IC50 for each compound.
row,IC50,Compound
1,≤ 50 nM,"CN1CCN(c2nccc(-n3cnc(-c4nc(NC5CCN(S(C)(=O)=O)CC5)ncc4C(F)(F)F)c3)c2Cl)CC1 [Example 319, 4-(1-(3-Chloro-2-(4-methylpiperazin-1-yl)pyridin-4-yl)-1H-imidazol-4-yl)-N-(1-(methylsulfonyl)piperidin-4-yl)-5-(trifluoromethyl)pyrimidin-2-amine]"
2,≤ 50 nM,"Cc1nc(-c2nc(NC3CCN(S(C)(=O)=O)CC3)ncc2C(F)(F)F)cn1-c1ccc(-c2cnnn2C)cc1F [Example 128, 4-(1-(2-Fluoro-4-(1-methyl-1H-1,2,3-triazol-5-yl)phenyl)-2-methyl-1H-imidazol-4-yl)-N-(1-(methylsulfonyl)piperidin-4-yl)-5-(trifluoromethyl)pyrimidin-2-amine]"
3,≤ 50 nM,"CC(C)NC(C)c1cccc(-n2cnc(-c3nc(NC4CCN(S(C)(=O)=O)CC4)ncc3C(F)(F)F)c2)c1Cl (stereo not shown) [Example 468, 4-(1-(2-Chloro-3-(1-(isopropylamino)ethyl)phenyl)-1H-imidazol-4-yl)-N-(1-(methylsulfonyl)piperidin-4-yl)-5-(trifluoromethyl)pyrimidin-2-amine]"
4,≤ 50 nM,"CS(=O)(=O)N1CCC(Nc2ncc(C(F)(F)F)c(-c3cn(-c4ccc(C#N)nc4C(F)(F)F)cn3)n2)CC1 [Example 99, 5-(4-(2-((1-(Methylsulfonyl)piperidin-4-yl)amino)-5-(trifluoromethyl)pyrimidin-4-yl)-1H-imidazol-1-yl)-6-(trifluoromethyl)picolinonitrile]"
5,≤ 50 nM,"C[C@@H]1CN(S(=O)(=O)C2CC2)CC[C@@H]1Nc1ncc(C(F)(F)F)c(-c2cn(-c3ccc(CNC4CC4)cc3Cl)cn2)n1 [Example 221, 4-(1-(2-Chloro-4-((cyclopropylamino)-methyl)phenyl)-1H-imidazol-4-yl)-N-((3R,4S)-1-(cyclo-propylsulfonyl)-3-methylpiperidin-4-yl)-5-(trifluoro-methyl)pyrimidin-2-amine]"
6,≤ 50 nM,"CS(=O)(=O)N1CCC(Nc2ncc(C(F)(F)F)c(-c3cn(-c4ccc(CNC5CC5)cc4C#N)cn3)n2)CC1 [Example 343, 5-((Cyclopropylamino)methyl)-2-(4-(2-((1-(methylsulfonyl)piperidin-4-yl)amino)-5-(trifluoromethyl)pyrimidin-4-yl)-1H-imidazol-1-yl)benzonitrile]"
7,≤ 50 nM,"CS(=O)(=O)N1CCC(Nc2ncc(C(F)(F)F)c(-c3cn(-c4ccc(CNCC(F)F)cc4Cl)cn3)n2)CC1 [Example 186, 4-(1-(2-Chloro-4-(((2,2-difluoroethyl)-amino)methyl)phenyl)-1H-imidazol-4-yl)-N-(1-(methylsulfonyl)-piperidin-4-yl)-5-(trifluoromethyl)-pyrimidin-2-amine]"
8,≤ 50 nM,"CS(=O)(=O)N1CCC(Nc2ncc(C#N)c(-c3cn(CC(F)F)cn3)n2)CC1 [Example 26, 4-(1-(2,2-Difluoroethyl)-1H-imidazol-4-yl)-2-((1-(methylsulfonyl)piperidin-4-yl)amino)pyrimidine-5-carbonitrile]"
9,≤ 50 nM,"Cn1cnc(-c2nc(NC3CCN(S(C)(=O)=O)CC3)ncc2C(F)(F)F)c1 [Example 11, 4-(1-Methyl-1H-imidazol-4-yl)-N-(1-(methylsulfonyl)piperidin-4-yl)-5-(trifluoromethyl)pyrimidin-2-amine]"
10,≤ 50 nM,"CS(=O)(=O)N1CCC(Nc2ncc(C(F)(F)F)c(-c3cn(-c4ccccc4Br)cn3)n2)CC1 [Example 442, 4-(1-(2-Bromophenyl)-1H-imidazol-4-yl)-N-(1-(methylsulfonyl)piperidin-4-yl)-5-(trifluoromethyl)pyrimidin-2-amine]"
11,≤ 50 nM,"CS(=O)(=O)N1CCC(Nc2ncc(C(F)(F)F)c(-c3cn(-c4ccc(CCN5CCC5)cc4Cl)cn3)n2)CC1 [Example 158, 4-(1-(4-(2-(Azetidin-1-yl)ethyl)-2-chloro-phenyl)-1H-imidazol-4-yl)-N-(1-(methyl-sulfonyl)piperidin-4-yl)-5-(trifluoro-methyl)pyrimidin-2-amine]"
12,≤ 50 nM,CS(=O)(=O)N1CCC(Nc2ncc(C(F)(F)F)c(-c3cn(-c4ccc(CN5CC[C@@H](O)C5)cc4Cl)cn3)n2)CC1 [Example 205]
13,≤ 50 nM,"CS(=O)(=O)N1CCC(Nc2ncc(C(F)(F)F)c(-c3cn(-c4ccc(CN5CCOCC5)cc4Cl)cn3)n2)CC1 [Example 210, 4-(1-(2-Chloro-4-(morpholinomethyl)-phenyl)-1H-imidazol-4-yl)-N-(1-(methyl-sulfonyl)piperidin-4-yl)-5-(trifluoro-methyl)pyrimidin-2-amine]"
14,≤ 50 nM,"CC(c1cccc(-n2cnc(-c3nc(NC4CCN(S(C)(=O)=O)CC4)ncc3C(F)(F)F)c2)c1Cl)N(C)C (stereo not shown) [Example 376, 4-(1-(2-Chloro-3-(1-(dimethylamino)ethyl)phe-nyl)-1H-imidazol-4-yl)-N-(1-(methylsulfonyl)piperidin-4-yl)-5-(trifluoromethyl)pyrimi-din-2-amine]"
15,≤ 50 nM,"CC1(O)CN(Cc2cccc(-n3cnc(-c4nc(NC5CCN(S(C)(=O)=O)CC5)ncc4C(F)(F)F)c3)c2Cl)C1 [Example 362, 1-(2-Chloro-3-(4-(2-((1-(methylsulfonyl)piperidin-4-yl)amino)-5-(trifluoromethyl)pyrimi-din-4-yl)-1H-imidazol-yl)benzyl)-3-methylazetidin-3-ol]"
16,≤ 50 nM,"CC(C)(O)Cn1cnc(-c2nc(NC3CCN(S(C)(=O)=O)CC3)ncc2C(F)(F)F)c1 [Example 22, 2-Methyl-1-(4-(2-((1-(methylsulfonyl)piperidin-4-yl)amino)-5-(trifluoromethyl)pyrimidin-4-yl)-1H-imidazol-1-yl)propan-2-ol]"
17,≤ 50 nM,"CNCc1ccc(-n2cnc(-c3nc(NC4CCN(S(C)(=O)=O)CC4)ncc3Cl)c2)c(Cl)c1 [Example 227, 5-Chloro-4-(1-(2-chloro-4-((methyl-amino)methyl)-phenyl)-1H-imidazol-4-yl)-N-(1-(methyl-sulfonyl)piperidin-4-yl)pyrimidin-2-amine]"
18,≤ 50 nM,"CS(=O)(=O)N1CCC(Nc2ncc(C(F)(F)F)c(-c3cn(-c4ccc5cccnc5c4Br)cn3)n2)CC1 [Example 163, 4-(1-(8-Bromoquinolin-7-yl)-1H-imidazol-4-yl)-N-(1-(methyl-sulfonyl)piperidin-4-yl)-5-(trifluoromethyl)-pyrimidin-2-amine]"
19,≤ 50 nM,"CS(=O)(=O)N1CCC(Nc2ncc(C(F)(F)F)c(-c3cn(-c4ccc5ncccc5c4Br)cn3)n2)CC1 [Example 164, 4-(1-(5-Bromoquinolin-6-yl)-1H-imidazol-4-yl)-N-(1-(methyl-sulfonyl)piperidin-4-yl)-5-(trifluoromethyl)-pyrimidin-2-amine]"
20,≤ 50 nM,"CS(=O)(=O)N1CCC(Nc2ncc(C(F)(F)F)c(-c3cn(-c4ccc(CN5CC6CCC5C6)cc4Cl)cn3)n2)CC1 (stereo not shown) [Example 180, 4-(1-(4-((2-Azabicyclo[2.2.1]heptan-2-yl)methyl)-2-chlorophenyl)-1H-imidazol-4-yl)-N-(1-(methylsulfonyl)piperidin-4-yl)-5-(trifluoromethyl)pyrimidin-2-amine]"
21,≤ 50 nM,"CN1CCN(Cc2ccc(-n3cnc(-c4nc(NC5CCN(S(C)(=O)=O)CC5)ncc4C(F)(F)F)c3)c(Cl)c2)C1=O [Example 453, 1-(3-Chloro-4-(4-(2-((1-(methylsulfonyl)piperidin-4-yl)amino)-5-(trifluoromethyl)pyrimidin-4-yl)-1H-imidazol-1-yl)benzyl)-3-methylimidazolidin-2-one]"
22,≤ 50 nM,"CC(C)NCc1cc(F)c(-n2cnc(-c3nc(N[C@H]4CCN(S(C)(=O)=O)C[C@H]4F)ncc3C(F)(F)F)c2)c(F)c1 [Example 386, 4-(1-(2,6-Difluoro-4-((isopropylamino)methyl)phenyl)-1H-imidazol-4-yl)-N-((3R,4S)-3-fluoro-1-(methylsulfonyl)piperidin-4-yl)-5-(trifluoromethyl)pyrimidin-2-amine]"
23,≤ 50 nM,"CN(C)CCOc1ccc(-n2cnc(-c3nc(NC4CCN(S(C)(=O)=O)CC4)ncc3C(F)(F)F)c2)c(C(F)(F)F)n1 [Example 72, 4-(1-(6-(2-(Dimethylamino)ethoxy)-2-(trifluoromethyl)pyridin-3-yl)-1H-imidazol-4-yl)-N-(1-(methylsulfonyl)piperidin-4-yl)-5-(trifluoromethyl)pyrimidin-2-amine]"
24,≤ 50 nM,"CC(C)NCCc1cccc(-n2cnc(-c3nc(NC4CCN(S(C)(=O)=O)CC4)ncc3C(F)(F)F)c2)c1Cl [Example 465, 4-(1-(2-Chloro-3-(2-(isopropylamino)ethyl)phenyl)-1H-imidazol-4-yl)-N-(1-(methylsulfonyl)piperidin-4-yl)-5-(trifluoromethyl)pyrimidin-2-amine]"
25,≤ 50 nM,"Cc1nc(-c2nc(NC3CCN(S(C)(=O)=O)CC3)ncc2C(F)(F)F)cn1-c1ccc(OCCN(C)C)cc1F [Example 423, 4-(1-(4-(2-(Dimethylamino)ethoxy)-2-fluorophenyl)-2-methyl-1H-imidazol-4-yl)-N-(1-(methylsulfonyl)piperidin-4-yl)-5-(trifluoromethyl)pyrimidin-2-amine]"
26,≤ 50 nM,"CS(=O)(=O)N1CCC(Nc2ncc(C(F)(F)F)c(-c3cn(C4CCOCC4)cn3)n2)CC1 [Example 24, N-(1-(Methylsulfonyl)piperidin-4-yl)-4-(1-(tetrahydro-2H-pyran-4-yl)-1H-imidazol-4-yl)-5-(trifluoromethyl)pyrimidin-2-amine]"
27,≤ 50 nM,"Cc1nc(-c2nc(NC3CCN(S(C)(=O)=O)CC3)ncc2C(F)(F)F)cn1-c1ccc(N2CC[C@@H](N(C)C)C2)cc1F [Example 109, (R)-4-(1-(4-(3-(Dimethylamino)-pyrrolidin-1-yl)-2-fluorophenyl)-2-methyl-1H-imidazol-4-yl)-N-(1-(methyl-sulfonyl)piperidin-4-yl)-5-(trifluoro-methyl)pyrimidin-2-amine]"
28,≤ 50 nM,"CNCc1ccc(-n2cnc(-c3nc(NC4CCN(S(C)(=O)=O)CC4)ncc3C(F)(F)F)c2)c(F)c1 [Example 266, 4-(1-(2-Fluoro-4-((methylamino)methyl)phenyl)-1H-imidazol-4-yl)-N-(1-(methylsulfonyl)piperidin-4-yl)-5-(trifluoromethyl)pyrimidin-2-amine]"
